Where a name gives a salt, the structure may show the parent alone.
Columns and labels:
[1] = test system: Stress Ulcer; experiment: Inhibitory Effect on Stress Ulcer in Rat (Water Immersion Restraint Method); assay type: in vivo; conditions: water immersion restraint 21° C.; for inhibition in vivo at 100 mg/kg / inhibition in vivo at 200 mg/kg / inhibition in vivo at 400 mg/kg: Rattus norvegicus
Experimental: In this experiment, test compounds were administered as the free base, in the form of the hydrochloric acid salts or in the form of the hydrate. | Inhibitory Effect on Stress Ulcer in Rat |Inhibitory Effect on Stress Ulcer in Rat |Inhibitory Effect on Stress Ulcer in Rat Note 2. Inhibitory effect on Stress Ulcer was examined according to Water Immersion Restraint Method disclosed in Japanese Journal of Pharmacology, Vol. 18, 9 (1968). Note 3. As test animals, seven rats weighing about 300 g were used for each dosage level. Note 4. Test compounds were injected intraperitoneally or administered orally before 30 minutes of water immersion restrain. Note 5. Test animals were immersed and restrained in water at 21° C. for 20 hours in experiment of Tables 2 and 3 and at 21° C. for 7 hours in experiment of Table 4.

[2] = test system: Secretion of Gastric Acids Induced by Insuline; experiment: Inhibitory effect on secretion of gastric acids induced by insuline (modified Shield's Method); assay type: in vivo; conditions: rat, i.v., insuline 4 ug/kg
Experimental: Accordingly, the compounds of this invention are very useful as a unique type of anti-ulcer agent. […] The results obtained in this experiment are shown in Table 5 and Table 6 below. |Inhibitory Effects on Secretion of Gastric Acids |Induced by Insuline (dose: 4 ug/kg, i.v.)

[3] = test system: Secretion of Gastric Acids Induced by Carpronium Chloride; experiment: Inhibitory effect on secretion of gastric acids induced by carpronium chloride (modified Shield's Method); assay type: in vivo; conditions: rat, i.v., carpronium chloride 8-10 μg/rat
Experimental: Accordingly, the compounds of this invention are very useful as a unique type of anti-ulcer agent. […] The results obtained in this experiment are shown in Table 5 and Table 6 below. |Inhibitory Effects on Secretion of Gastric Acids Induced |by Carponium Chloride (dose: 8-10 μg/rat, i.v.)

[4] = Stability of Mixture of Hydrate with Various Kinds of Additives (one month storage), color change; assay type: physicochemical; parameters: key to color change: --: no color change; ±: slight color change; +: clear color change
Experimental: (§1) It was also confirmed by thin layer chromatography that the hydrate was stable in methanol at room temperature for 48 hours. This means that it is possible to use methanol as a solvent in producing pharmaceutical preparations. It was further confirmed that a mixture of the hydrate of this invention with various kinds of additives such as carriers, diluents, etc., was stable under accelerated conditions, i.e., under high humidity at an elevated temperature for one month or under the light irradiation from 2,500 lux for one month.
Stability of Mixture of Hydrate with Various
Kinds of Additives (one month storage)
The meaning of the symbols is as follows.
Samples were prepared by well mixing 100 mg of the hydrate with 100 mg of
the additive except for magnesium stearate and talc. In case of using
magnesium stearate or talc as the additive, 10 mg of the hydrate was used

[5] = stability of hydrate in methanol by thin layer chromatography; assay type: physicochemical; conditions: room temperature, 48 hours
Experimental: as §1

[6] = isothermal absorption curve, stability of hydrate under high humidity; assay type: physicochemical
Experimental: as §1

[7] = test system: cardiovascular system; conditions: Pharmacometrics, Vol. 8, 835-846 (1974); cited from earlier work
[8] = test system: ulcer; conditions: The Pharmacological Basis of Therapeutics, 4th Edition, 234 (1970); cited from earlier work
[9] = ip, 20 h, intraperitoneal, 100 mg/kg

Compound: COc1ccc(CCNC(=O)CNc2cccc(Cl)c2)cc1OC
- inhibition in vivo at 100 mg/kg [1, 9]: 36%

Compound: COc1ccc(CCNC(=O)CNc2ccc(C(N)=O)cc2)cc1OC
- inhibition in vivo at 100 mg/kg [1, 9]: 20%

Compound: COc1ccc(C(N)=O)c(NCC(=O)NCCc2ccc(OC)c(OC)c2)c1
- inhibition in vivo at 100 mg/kg [1, 9]: 44%

Compound: COc1ccc(CCNC(=O)CNc2ccc(Cl)cc2C(N)=O)cc1OC
- inhibition in vivo at 100 mg/kg [1, 9]: 34%

Compound: COc1ccc(CCNC(=O)CNc2ccc(Cl)c(C(N)=O)c2)cc1OC
- inhibition in vivo at 100 mg/kg [1, 9]: 35%

Compound: COc1ccc(CCNC(=O)CNc2cc(OC)c(C(N)=O)cc2Cl)cc1OC
- inhibition in vivo at 100 mg/kg [1, 9]: 21%

Compound: COc1ccc(CCNC(=O)CNC(=O)c2ccccc2OC)cc1OC
- inhibition in vivo at 100 mg/kg [1, 9]: 50%

Compound: COc1ccc(CCNC(=O)CNc2cc(N)ncn2)cc1OC
- inhibition in vivo at 100 mg/kg [1, 9]: 27%

Compound: CNc1nc(Cl)c(SC)c(NCC(=O)NCCc2ccc(OC)c(OC)c2)n1
- inhibition in vivo at 100 mg/kg [1, 9]: 17%

Compound: COc1ccc(CCNC(=O)CNc2cccc(S(N)(=O)=O)c2)cc1OC
- inhibition in vivo at 100 mg/kg [1, 9]: 47%

Compound: COc1ccc(CCNC(=O)CNc2cc(Cl)ccc2C(N)=O)cc1OC [Compound 1, 2-(2-carbamoyl-5-chlorophenylamino)-N-(3,4-dimethoxyphenethyl)acetamide]
- inhibition in vivo at 100 mg/kg ([1]; po, 20 h, 100 mg/kg): 5%
- inhibition in vivo at 200 mg/kg ([1]; po, 20 h): 17%
- inhibition in vivo at 400 mg/kg ([1]; po, 20 h): 18%
- Inhibition ([2]; 50 mg/kg): 50%
- Inhibition ([3]; 50 mg/kg): 0%

Compound: COc1ccc(CCNC(=O)CNc2cccc(C(N)=O)c2)cc1OC.Cl [Compound 2, 2-(3-carbamoylphenylamino)-N-(3,4-dimethoxyphenethyl)acetamide hydrochloride]
- inhibition in vivo at 100 mg/kg ([1]; po, 20 h, 100 mg/kg): 5%
- inhibition in vivo at 200 mg/kg ([1]; po, 20 h): 21%
- inhibition in vivo at 400 mg/kg ([1]; po, 20 h): 33%
- Inhibition ([2]; 10 mg/kg): 80%
- Inhibition ([3]; 50 mg/kg): 0%
- Inhibition ([3]; 100 mg/kg): 0%

Compound: COc1ccc(CCNC(=O)CNc2ccccc2)cc1OC [Compound 3, 2-(phenylamino)-N-(3,4-dimethoxyphenethyl)acetamide hydrochloride]
- inhibition in vivo at 100 mg/kg ([1]; po, 20 h, 100 mg/kg): 20%
- inhibition in vivo at 200 mg/kg ([1]; po, 20 h): 20%
- inhibition in vivo at 400 mg/kg ([1]; po, 20 h): 25%

Compound: COc1ccc(CCNC(=O)CNc2cccc(C(N)=O)c2)cc1OC [Compound 4, 2-(3-carbamoylphenylamino)-N-(3,4-dimethoxyphenethyl)acetamide.3H2 O]
- color change ([4]; additive Calcium Phosphate Dibasic, one month storage, condition shown as drawing 6 (high humidity at an elevated temperature)): --
- color change ([4]; additive Calcium Phosphate Dibasic, one month, light 2500 lux): --
- color change ([4]; additive Cornstarch, one month storage, condition shown as drawing 6 (high humidity at an elevated temperature)): --
- color change ([4]; additive Cornstarch, one month, light 2500 lux): --
- color change ([4]; additive Crystalline Cellulose, one month storage, condition shown as drawing 6 (high humidity at an elevated temperature)): --
- color change ([4]; additive Crystalline Cellulose, one month, light 2500 lux): --
- color change ([4]; additive Hydroxypropylcellulose, one month storage, condition shown as drawing 6 (high humidity at an elevated temperature)): --
- color change ([4]; additive Hydroxypropylcellulose, one month, light 2500 lux): --
- color change ([4]; additive Hydroxypropylmethylcellulose, one month storage, condition shown as drawing 6 (high humidity at an elevated temperature)): ±
- color change ([4]; additive Hydroxypropylmethylcellulose, one month, light 2500 lux): --
- color change ([4]; additive Lactose, one month storage, condition shown as drawing 6 (high humidity at an elevated temperature)): --
- color change ([4]; additive Lactose, one month, light 2500 lux): --
- color change ([4]; additive Macrogol 6000, one month storage, condition shown as drawing 6 (high humidity at an elevated temperature)): --
- color change ([4]; additive Macrogol 6000, one month, light 2500 lux): --
- color change ([4]; additive Magnesium Stearate, one month storage, condition shown as drawing 6 (high humidity at an elevated temperature)): --
- color change ([4]; additive Magnesium Stearate, one month, light 2500 lux): --
- color change ([4]; additive Mannitol, one month storage, condition shown as drawing 6 (high humidity at an elevated temperature)): --
- color change ([4]; additive Mannitol, one month, light 2500 lux): --
- color change ([4]; additive Polyvinyl Alcohol, one month storage, condition shown as drawing 6 (high humidity at an elevated temperature)): --
- color change ([4]; additive Polyvinyl Alcohol, one month, light 2500 lux): --
- color change ([4]; additive Sucrose, one month storage, condition shown as drawing 6 (high humidity at an elevated temperature)): --
- color change ([4]; additive Sucrose, one month, light 2500 lux): --
- color change ([4]; additive Talc, one month storage, condition shown as drawing 6 (high humidity at an elevated temperature)): --
- color change ([4]; additive Talc, one month, light 2500 lux): --
- stability of mixture with additives ([4]; in words, high humidity at an elevated temperature for one month or light irradiation from 2,500 lux for one month): stable
- stability in methanol [5]: stable
- stability under high humidity ([6]; high humidity at an elevated temperature): very stable
- relative critical humidity ([6]; isothermal absorption curve): had not relative critical humidity
- inhibition in vivo at 100 mg/kg ([1]; po, 7 h, 100 mg/kg): 23%
- inhibition in vivo at 200 mg/kg ([1]; po, 7 h): 36%
- inhibition in vivo at 400 mg/kg ([1]; po, 7 h): 70%

Compound: NCCc1ccc(O)c(O)c1 [Dopamine, 3,4-dihydroxyphenethylamine]
- action on cardiovascular system [7]: acts strongly on cardiovascular system
- anti-ulcer activity [8]: has anti-ulcer activity

Compound: CCN1CCCC1CNC(=O)c1cc(S(N)(=O)=O)ccc1OC (centres unmarked) [Sulpiride, N-[(1-ethyl-2-pyrrolidinyl)methyl]-2-methoxy-5-sulfamoylbenzamide, reference compound]
- inhibition in vivo at 100 mg/kg [1, 9]: 27%
- inhibition in vivo at 100 mg/kg ([1]; po, 7 h, 100 mg/kg): 29%
- inhibition in vivo at 200 mg/kg ([1]; po, 7 h): 20%
- inhibition in vivo at 400 mg/kg ([1]; po, 7 h): 39%
- inhibition in vivo at 100 mg/kg ([1]; po, 20 h, 100 mg/kg): 5%
- inhibition in vivo at 200 mg/kg ([1]; po, 20 h): 4%
- inhibition in vivo at 400 mg/kg ([1]; po, 20 h): 11%

Compound: COc1ccc(CCNC(=O)CNc2ccccc2)cc1OC [drawing 8]
- inhibition in vivo at 100 mg/kg [1, 9]: 42%

Compound: COc1ccc(CCNC(=O)CNc2cc(Cl)ccc2C(N)=O)cc1OC [drawing 11]
- inhibition in vivo at 100 mg/kg [1, 9]: 38%

Compound: COc1ccc(CCNC(=O)CNc2cccc(C(N)=O)c2)cc1OC [drawing 15]
- inhibition in vivo at 100 mg/kg [1, 9]: 53%

Compound: COc1ccc(CCNC(=O)CNc2cccc(C(N)=O)c2)cc1OC [drawing 16]
- Inhibitory Effect ([1]; intraperitoneal, 100 mg/kg, 20 hours): 52%
